Measured values: patent US20180098950A1, “INHIBITORS OF ABETA AND SYNUCLEIN AGGREGATION” (The Feinstein Institute For Medical Research, priority 2006, published 2018)
Values joined by “and” are separate entries in the source; they are usually repeats but may differ in a detail not shown here. Equal values may be shown once. “Also recorded” adds a separate entry of the source. Read-outs that look alike come from different tables or passages of the source.

How the values were obtained:
[1] = molecular target: synuclein (Homo sapiens, UniProt P37840); test: Anti-oligomer antibody ELISA, synuclein
Method: The ability of CNI-1493 to prevent aggregation of synuclein was tested by determining the recognition of synuclein by an anti-oligomer antibody (gift of Dr. C. Glabe, University of California at Irvine) in an ELISA assay.

[2] = molecular target: T1, Aβ40 (Homo sapiens, UniProt P05067); test: Anti-oligomer antibody ELISA, Aβ40
T1 construct: The 40-amino acid form (Aβ340) is the most abundantly produced Aβ peptide
T1 sequence (P05067 672-711 limits assumed): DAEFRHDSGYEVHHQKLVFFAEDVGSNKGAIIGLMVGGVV

[3] = molecular target: T2, Aβ42 (Homo sapiens, UniProt P05067); test: Anti-oligomer antibody ELISA, Aβ42
T2 construct: less abundant 42-amino acid form (Aβ42)
T2 sequence (P05067 672-713 limits assumed): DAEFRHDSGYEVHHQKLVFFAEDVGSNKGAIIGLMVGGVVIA

[4] = test system: N2a cells expressing wild type APP695; test: APP processing analysis in N2a cells; type: cell-based; conditions: 24 h treatment
Method: APP processing analysis in N2a cells. APP695-transfected N2a cells (Marambaud et al., 2005) were grown in 1:1 DMEM/Opti-MEM supplemented with 5% FBS, penicillin and streptomycin, and 0.2 mg/ml G418. Cells were treated at confluency for 24 h with the indicated concentrations of CNI-1493. Medium was then changed and treatments were continued for another 2 h to allow Aβ secretion. Twenty microliters of conditioned medium were electrophoresed on 16.5% Tris-Tricine gels and transferred onto […] nitrocellulose membranes. Membranes were then microwaved for 5 min in PBS, blocked in 5% fat-free milk in TBS, and incubated with 6E10 (Signet, 1:1000 in Pierce SuperBlock) overnight at 4° C. Cells were washed with PBS and solubilized in ice-cold HEPES buffer (25 mM HEPES, pH 7.4, 150 mM NaCl, 1× Complete protease inhibitor cocktail, Roche) containing 1% SDS. Ten micrograms of extracts were analyzed by western blot with 6E10, R1 (anti-APP C-terminal domain, reference 21), and LN27 (anti-APP1-200, Zymed).

[5] = test system: F4/80 antigen; test: Western blot of F4/80 (microglial activation) in brain of treated TgCRND8 mice; type: in vivo, mouse; conditions: 8 mg/kg i.p. twice a week for 8 weeks, vs control
Method: (§1) Drug treatment of TgCRND8 mice. APP transgenic TgCRND8 mice at 4 months old received twice a week an i.p. injection of 200 μl containing 200 μg CNI-1493 (8 mg/kg) for 8 weeks. There were four animals in each treatment group. Animals were housed singly in individual cages. At the end of the experimental period, animals were killed by decapitation. The brain was dissected and the hemispheres separated along the midline. One hemisphere was fixed in 4% buffered formaldehyde for 24 h followed by dehydration and paraffin embedding. The other hemisphere was immediately snap-frozen in liquid nitrogen and kept at −80° C.
Biochemical analysis. Half of the brain was weighed and homogenized in an appropriate volume of T-PER (Perbio, Bonn, Germany) in accordance to the guidelines of the manufacturer. Lysate protein concentration was measured by BCA kit (Perbio). 15-60 μg protein per sample was loaded onto a pre-cast NuPAGE Novex 4-12% Bis-Tris gel and separated using the Novex electrophoresis system (Invitrogen, Karsruhe, Germany). Subsequently, the proteins were transferred onto nitrocellulose membranes (Invitrogen) using the XCell II™ blot (Invitrogen). The immobilized proteins were visualized using MemCode reversible protein staining kit (Perbio). […] Equal protein loading of all membranes was assessed by reprobing with monoclonal antibodies against GAPDH (Acris, Hiddenhausen, Germany).

[6] = test system: primary neurons; test: Aβ toxicity in primary neurons; type: cell-based
Description: To determine whether the CNI-1493-treated form of Aβ is toxic, Aβ that had been pretreated with, or without, CNI-1493 was combined with SY5Y neuroblastoma cells. Toxicity was monitored using MTT (thiazolyl blue) reduction (mitochondrial succinate dehydrogenase activity) and lactate dehydrogenase activity (LDH). The MTT and LDH assays correlated with each other. […] Additionally, the protective effect of CNI-1493 was examined in similar assays using primary neurons.

[7] = molecular target: T2, Aβ42; test: Electron microscopy of Aβ42 oligomer fibrilization; conditions: Aβ42 oligomers with vs without CNI-1493
[8] = test system: APP-expressing TgCRND8 mice; test: Aβ plaque burden by immunohistochemistry and image analysis in TgCRND8 mice; type: in vivo, mouse; conditions: 8 mg/kg i.p. twice a week for 8 weeks, vs vehicle
Method: Animals. All animal procedures were approved by the office of the district president and the institutional animal care and use committee for the University of Munster. We used the TgCRND8 mouse line (courtesy of David Westaway, University of Toronto, Toronto, Ontario, Canada). TgCRND8 mice encode a double mutant form of amyloid precursor protein 695 (KM670/671 NL+V717F) under the control of the PrP gene promoter (Chishti et al., 2001). Thioflavine S-positive Aβ amyloid deposits are present at 3 months, with dense-cored plaques and neuritic pathology evident from 5 months of age.
as §1
Immunohistochemistry. Three pairs of 2 μm sagittal brain sections of each transgenic animal were stained for Aβ immunoreactivity. The pairs (10 μm distance) were situated 100 μm, 200 μm and 300 μm lateral from the mid-sagittal fissure. All slices were pretreated with formic acid and automatically stained in a TechMate Instrument (Dako Cytomation, Hamburg, Germany) with 6F/3D anti-Aβ monoclonal antibody to residues 8-17 (Dako, 1:100). For further steps, the Dako StreptABC complex-horseradish peroxidase conjugated “Duet” anti mouse/rabbit antibody kit was used and developed with 3, 3′-diaminobenzidine (DAB) as chromogen. Counterstaining was performed with hematoxylin. All slides were stained in two consecutive procedures making sure that brains of both experimental groups were equally distributed in both procedures.
Image analysis. To quantify Aβ plaque burden, cortices and hippocampi of all stained sections were digitalized by a ColorView II, 3, 3 Mega Pixel CCD camera under constant light and filter settings. Color images were converted to greyscale to obtain best contrast between positive immunoreactivity and background. A constant threshold was chosen for all images to detect immunoreactive staining.
Morphometric measurements were performed by image analysis software “SIS analysis Auto Software 3.2” (Soft Imaging System GmbH, http://www.soft-imaging.org/). Total number and surface of plaques was related to the total area analyzed.

[9] = molecular target: T2, Aβ42; test: Aβ oligomer ELISA with various concentrations of CNI-1493; conditions: Aβ42 with increasing concentrations of CNI-1493
Description: Aβ42 was combined with various concentrations of CNI-1493 and Aβ oligomers were quantified by ELISA using Aβ oligomer-specific antibodies.

SMILES | recognition by anti-oligomer antibody (aggregation) [1] | recognition by anti-oligomer antibody (aggregation) [2] | recognition by anti-oligomer antibody (aggregation) [3] | recognition by anti-oligomer antibody (aggregation) ([1]; listed as CNI-1492) | full length APP production (LN27) [4] | β- or γ-secretase cleavage of APP (C99, C83 fragments) [4] | total Aβ secreted into the medium (western blot, 6E10) ([4]; then medium change and continued treatment) | microglial activation, F4/80 expression in brain (western blot) [5] | recognition by anti-oligomer antibody (aggregation) ([2]; listed as CNI-1492) | protection from Aβ toxicity [6] | formation of fibrillar aggregates (electron microscopy) [7] | recognition by anti-oligomer antibody (aggregation) ([3]; listed as CNI-1492) | reduction of plaque area (square micrometers per area of interest in square mm) ([8]; cortex) [%] | reduction of plaque number (plaques per area of interest in square mm) ([8]; cortex) [%] | reduction of plaque number (plaques per area of interest in square mm) ([8]; hippocampus) [%] | reduction of plaque area (square micrometers per area of interest in square mm) ([8]; hippocampus, 8 mg/kg) | Aβ oligomers by ELISA (final OD) [9]
N=C(N)c1ccc(OCCCCCOc2ccc(C(=N)N)cc2)cc1 [pentamidine, reference compound] | reduced recognition by the antibody | reduced recognition by the antibody | reduced recognition by the antibody | – | – | – | – | – | – | – | – | – | – | – | – | – | –
CC(=NNC(=N)N)c1cc(NC(=O)CCCCCCCCC(=O)Nc2cc(C(C)=NNC(=N)N)cc(C(C)=NNC(=N)N)c2)cc(C(C)=NNC(=N)N)c1.Cl.Cl.Cl.Cl [CNI-1493, N,N′-bis(3,5-diacetylphenyl)decanediamide tetrakis(amidinohydrazone) tetrahydrochloride] | prevents aggregation | prevents aggregation | prevents aggregation | reduced recognition by the antibody | not accompanied by reduced levels of APP production | no effect | profound dose-dependent decrease of total Aβ accumulation; also recorded: dose-dependent, dramatic reduction; also recorded: profound dose-dependent decrease of total Aβ secretion | significant reduction in microglial activation; also recorded: decrease of F4/80 signal; also recorded: decline of F4/80 in all CNI-1493 animals | reduced recognition by the antibody | protected the neurons from Aβ toxicity | do not form the fibrillar aggregates; also recorded: inhibited Aβ42 oligomer fibrilization | reduced recognition by the antibody | 70 | 57 | 60 | 87% and 86% | reduced the final OD in the ELISA; also recorded: reduction in recognition of Aβ oligomers
